Measured values published in the supplement of paper PMC8967900.

What was measured:
Assay in all cases: selective drug sensitivity score (sDSS, relative to normal bone marrow) (sDSS (score)); higher = more potent and effective on the cell line relative to normal bone marrow cells
Settings in all cases: 72 h
[1] = tested on: 380
[2] = tested on: 697
[3] = tested on: ALL-SIL
[4] = tested on: COG-LL-319h
[5] = tested on: COG-LL-355h
[6] = tested on: DND-41
[7] = tested on: HPB-ALL
[8] = tested on: JURKAT
[9] = tested on: KASUMI-2
[10] = tested on: LC4-1
[11] = tested on: MHH-CALL-2
[12] = tested on: MHH-CALL-3
[13] = tested on: MOLT-16
[14] = tested on: NALL-1
[15] = tested on: NALM-16
[16] = tested on: P30-OHKUBO
[17] = tested on: REH
[18] = tested on: SUP-B15
[19] = tested on: TANOUE
[20] = tested on: TMD5
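Note: ALL cell lines in 384-well plates, five doses spanning 10,000-fold, each plate scaled between vehicle and 100 µmol/L benzalkonium chloride controls, sDSS an adapted area-under-curve metric.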

Compound	selective drug sensitivity score [1]	selective drug sensitivity score [2]	selective drug sensitivity score [3]	selective drug sensitivity score [4]	selective drug sensitivity score [5]	selective drug sensitivity score [6]	selective drug sensitivity score [7]	selective drug sensitivity score [8]	selective drug sensitivity score [9]	selective drug sensitivity score [10]	selective drug sensitivity score [11]	selective drug sensitivity score [12]	selective drug sensitivity score [13]	selective drug sensitivity score [14]	selective drug sensitivity score [15]	selective drug sensitivity score [16]	selective drug sensitivity score [17]	selective drug sensitivity score [18]	selective drug sensitivity score [19]	selective drug sensitivity score [20]
NC1(c2ccc(-c3nc4ccn5c(=O)[nH]nc5c4cc3-c3ccccc3)cc2)CCC1 [MK-2206] (top concentration 1000 nM)	4.76	3.76	2.96	3.56	5.06	-1.64	1.06	-0.24	6.46	0.06	9.66	3.86	6.16	6.26	2.46	6.36	6.26	-0.44	-1.64	7.36
O=C(Nc1cccc(NC(=O)c2cccc(O)c2O)c1)c1cccc(O)c1O [MST-312] (top concentration 10000 nM)	6	-1.2	9.6	12.8	3.2	7.2	8.7	12.5	-1.6	8.1	10.8	-4	17.3	0.8	2.8	8.1	7.4	9.5	3.7	-3
CC(=O)O[C@]1(C(C)=O)CC[C@H]2[C@@H]3C=C(C)C4=CC(=O)CC[C@]4(C)[C@H]3CC[C@@]21C [Megestrol_acetate] (top concentration 10000 nM)	7.02	2.52	-0.48	0.42	0.52	16.8	-0.58	1.02	-0.58	-0.38	14.5	4.22	0.32	6.52	-0.58	4.42	0.52	0.32	-0.38	7.82
CO[C@@H]1[C@H](N(C)C(=O)c2ccccc2)C[C@H]2O[C@]1(C)n1c3ccccc3c3c4c(c5c6ccccc6n2c5c31)C(=O)NC4 [Midostaurin] (top concentration 10000 nM)	10.1	14	10.8	11.7	4.66	2.46	4.36	-1.34	-1.14	10.6	3.86	-0.64	12.5	5.36	-0.64	14.4	3.66	8.96	-7.24	0.66
CCCCCCCCCCCCCCCCOP(=O)([O-])OCC[N+](C)(C)C [Miltefosine] (top concentration 100000 nM)	-1.54	1.46	3.36	2.76	1.36	2.66	-2.94	-1.14	1.76	7.46	6.96	-2.94	-1.34	5.26	-0.34	2.26	2.76	2.36	1.76	-1.64
Nc1ccccc1NC(=O)c1ccc(CNc2nccc(-c3cccnc3)n2)cc1 [Mocetinostat] (top concentration 10000 nM)	15.5	8.84	9.14	14.7	4.24	7.44	8.64	6.74	6.74	9.14	7.74	12.4	9.04	-3.16	-0.46	7.54	3.94	9.64	-8.46	1.44
CCNC(=O)C[C@@H]1N=C(c2ccc(Cl)cc2)c2cc(OC)ccc2-n2c(C)nnc21 [Molibresib] (top concentration 10000 nM)	-5.5	7.4	-3.3	6.9	1.7	-0.9	0.8	-0.6	-2.7	3.7	8.4	16.7	4.9	3.4	1.6	6.4	0.8	3.2	-6.2	5.2
Nc1ncnc2c1c(-c1cccc(OCc3ccccc3)c1)cn2[C@H]1C[C@@H](CN2CCC2)C1 [NVP-AEW541] (top concentration 10000 nM)	4.48	-2.72	4.58	5.08	5.38	-1.12	1.58	-4.72	-3.62	-0.92	3.28	-7.62	-2.92	-0.42	-1.42	-2.02	0.88	-2.02	-6.02	-7.62
CN[C@@H](C)C(=O)N[C@H](C(=O)N1CCC[C@H]1c1nc(C(=O)c2ccc(F)cc2)cs1)C1CCCCC1 [NVP-LCL161] (top concentration 25000 nM)	-5.02	-4.92	0.08	-2.32	12.2	-2.72	-2.62	-3.82	2.88	-5.42	3.98	-3.22	-1.62	2.48	-5.82	-1.12	2.38	-3.82	-5.82	-1.92
